The structures appear in SMILES notation. Substitutions are numbered along the chain they refer to.

Settings in all cases: at 10 µM
The test system of assay [1] is T1, Receptor-type tyrosine-protein kinase FLT3 (Homo sapiens), P36888 [D835Y].
T1 sequence (whole entry): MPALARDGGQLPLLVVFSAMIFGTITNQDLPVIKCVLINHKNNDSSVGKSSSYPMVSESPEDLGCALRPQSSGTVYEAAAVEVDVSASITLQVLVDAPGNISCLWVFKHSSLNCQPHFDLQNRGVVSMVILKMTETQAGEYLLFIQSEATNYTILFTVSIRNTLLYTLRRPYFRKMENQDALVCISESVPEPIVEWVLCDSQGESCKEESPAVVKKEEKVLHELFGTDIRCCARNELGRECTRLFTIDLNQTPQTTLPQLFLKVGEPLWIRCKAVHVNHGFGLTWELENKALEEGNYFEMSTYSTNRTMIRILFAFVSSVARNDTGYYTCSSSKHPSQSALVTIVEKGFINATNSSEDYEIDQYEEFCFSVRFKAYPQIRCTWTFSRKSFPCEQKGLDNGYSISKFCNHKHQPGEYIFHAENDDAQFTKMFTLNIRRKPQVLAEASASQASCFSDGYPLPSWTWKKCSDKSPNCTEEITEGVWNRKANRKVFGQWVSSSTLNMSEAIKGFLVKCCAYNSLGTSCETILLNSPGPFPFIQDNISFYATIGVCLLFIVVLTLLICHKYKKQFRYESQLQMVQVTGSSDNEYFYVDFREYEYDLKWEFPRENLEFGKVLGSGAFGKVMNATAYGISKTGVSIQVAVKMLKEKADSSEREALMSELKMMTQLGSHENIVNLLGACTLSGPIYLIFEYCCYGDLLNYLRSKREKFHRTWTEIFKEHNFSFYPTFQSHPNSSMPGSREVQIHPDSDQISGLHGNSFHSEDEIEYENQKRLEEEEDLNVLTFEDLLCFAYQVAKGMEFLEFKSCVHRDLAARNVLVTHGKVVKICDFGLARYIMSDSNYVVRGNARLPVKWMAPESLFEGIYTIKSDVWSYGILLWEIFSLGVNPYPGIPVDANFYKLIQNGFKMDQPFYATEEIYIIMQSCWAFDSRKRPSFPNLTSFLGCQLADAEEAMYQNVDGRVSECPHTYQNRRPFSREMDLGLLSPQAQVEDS
Kind of assay: (§1) Selectivity interaction (KinomeScan (DiscoverX)) EUB0000607a FLT3.

Assay [2] relates to T2, Receptor-type tyrosine-protein kinase FLT3 (Homo sapiens), P36888 [K663Q].
T2 sequence (whole entry): T1 sequence (whole entry) with K663Q, Y835D
Described as §1.

Assay [3] has as its system T3, Receptor-type tyrosine-protein kinase FLT3 (Homo sapiens), P36888 [N841I].
T3 sequence (whole entry): T1 sequence (whole entry) with Y835D, N841I
The assay is described as §1.

Take `CNC(=O)Nc1ccc(-c2nc(N3CC4CCC(C3)O4)c3cnn(C4CCC5(CC4)OCCO5)c3n2)cc1`: the % of control stood at 99% in assay [1], 69% in assay [2] and 89% in assay [3].
